Test results from paper PMC9299130 (Journal of Thrombosis and Haemostasis, 2021).
Blank lines part the entries; values can stand above or below the compound they belong to.

Legend:
[1] = test system: rabbit platelet-rich plasma; conditions: 3µM; cited from earlier work
cynomolgus monkey plasma [2] = test: Ecarin clotting time in cynomolgus monkey plasma; type: biochemical; conditions: 40 μM
[3] = test system: electrically mediated carotid arterial thrombosis; test: Rabbit ECAT model, prevention of thrombosis; type: in vivo
cynomolgus monkey plasma [4] = test: In vitro PT in cynomolgus monkey plasma; type: biochemical; conditions: 40 μM, reagent not given
recombinant FXIa [5] = biological target: recombinant FXIa (Oryctolagus cuniculus, UniProt G1SSQ6); test: biochemical
recombinant FXIa (Oryctolagus cuniculus, UniProt G1SSQ6), sequence (G1SSQ6 387-624): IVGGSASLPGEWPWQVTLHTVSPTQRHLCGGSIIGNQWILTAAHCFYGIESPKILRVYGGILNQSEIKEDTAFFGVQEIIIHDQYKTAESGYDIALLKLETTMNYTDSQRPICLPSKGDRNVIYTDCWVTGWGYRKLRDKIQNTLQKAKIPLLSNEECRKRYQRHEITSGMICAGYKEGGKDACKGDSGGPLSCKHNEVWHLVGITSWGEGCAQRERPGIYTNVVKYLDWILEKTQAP

[6] = Ex vivo coagulation assays; type: in vivo, rabbit
recombinant FXIa [7] = biological target: recombinant FXIa (Macaca fascicularis, UniProt A0A2K5VVW4); test: biochemical
recombinant FXIa (Macaca fascicularis, UniProt A0A2K5VVW4), sequence (A0A2K5VVW4 388-625): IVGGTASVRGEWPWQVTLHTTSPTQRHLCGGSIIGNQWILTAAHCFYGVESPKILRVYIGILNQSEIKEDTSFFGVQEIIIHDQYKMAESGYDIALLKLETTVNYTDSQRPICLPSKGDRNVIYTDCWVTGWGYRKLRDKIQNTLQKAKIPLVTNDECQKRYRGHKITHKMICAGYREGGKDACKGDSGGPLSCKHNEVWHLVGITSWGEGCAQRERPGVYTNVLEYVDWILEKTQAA

[8] = test system: rabbit platelet-rich plasma; test: In vitro platelet aggregation in hirudin-treated rabbit platelet-rich plasma; type: cell-based; conditions: for peak platelet aggregation response to ADP (10 µM): control 59 ± 1%; for peak platelet aggregation response to ADP (10 µM) / peak platelet aggregation response to collagen (10 µg/ml) / peak platelet aggregation response to arachidonic acid (250 µM): n = 4; for peak platelet aggregation response to collagen (10 µg/ml): control 66 ± 1%; for peak platelet aggregation response to arachidonic acid (250 µM): control 67 ± 1%
pooled human plasma [9] = test: Prothrombin time in pooled human plasma; type: biochemical; conditions: 40 μM total plasma concentration; baseline 10.3 ± 0.1 s
recombinant FXIa [10] = biological target: recombinant FXIa (Rattus norvegicus, UniProt F7F105)
recombinant FXIa (Rattus norvegicus, UniProt F7F105), sequence (F7F105 400-556): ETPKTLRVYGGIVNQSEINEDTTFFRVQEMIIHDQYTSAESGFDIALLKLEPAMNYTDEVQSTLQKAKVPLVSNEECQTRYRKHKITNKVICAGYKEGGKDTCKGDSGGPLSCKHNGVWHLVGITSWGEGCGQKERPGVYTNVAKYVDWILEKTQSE

pooled human plasma [11] = test: Thrombin clotting time in pooled human plasma; type: biochemical; conditions: baseline 16.6 s
[12] = Pharmacokinetics in rabbits; conditions: rabbit, in vivo
recombinant FXIa [13] = biological target: recombinant FXIa (Canis lupus familiaris, UniProt A0A8I3NYS2); conditions: dog recombinant FXIa
recombinant FXIa (Canis lupus familiaris, UniProt A0A8I3NYS2), sequence (A0A8I3NYS2 389-626): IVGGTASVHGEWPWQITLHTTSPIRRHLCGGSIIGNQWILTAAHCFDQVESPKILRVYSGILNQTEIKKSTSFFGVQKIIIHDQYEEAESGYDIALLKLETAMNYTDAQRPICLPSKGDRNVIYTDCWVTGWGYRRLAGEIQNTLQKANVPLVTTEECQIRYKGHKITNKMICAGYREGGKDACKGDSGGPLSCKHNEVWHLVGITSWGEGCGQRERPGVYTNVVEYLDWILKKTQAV

[14] = ECAT rabbits, 120 min after start of infusion

SMILES: Cc1noc(C)c1S(=O)(=O)N[C@@H](CNC(=O)C[C@H]1CC(c2ccc(C(=N)N)cc2)=NO1)C(=O)O [DMP802]
- platelet aggregation responses to ADP, arachidonic acid, and collagen [1]: almost completely inhibited

- Ki (recombinant FXIa [5]): 0.38 ± 0.01 nM
- Ki (recombinant FXIa [7]): 0.15 ± 0.01 nM
- Ki (recombinant FXIa [10]): 490 ± 40 nM
- concentration at 10 min ([12]; male, iv, 0.8 mg/kg): 2000 nM
- concentration at 8 h ([12]; male, iv, 0.8 mg/kg): 100 nM
- concentration at 1 h ([12]; po, 20 mg/kg): 2000 nM
- concentration at 24 h ([12]; po, 20 mg/kg): 40 nM
- Ki (recombinant FXIa [13]): 0.64 ± 0.03 nM
SMILES: C[C@@H]1CCC[C@H](n2cnc(-c3cc(Cl)ccc3-n3cc(Cl)nn3)cc2=O)c2cc(ccn2)-c2c(cnn2C(F)F)NC1=O [milvexian]
- ecarin clotting time increase over baseline (cynomolgus monkey plasma [2]): 1.9 ×
- reduction of thrombus weight ([3]; 0.063 + 0.04 mg/kg+mg/kg/h IV, n = 6): 15 ± 10%
- 20% maximal effective concentration (antithrombotic) ([3]; total plasma concentration, 95% CI 23–128): 55 nM
- PT increase over baseline (cynomolgus monkey plasma [4]): approximately 2 ×
- ex vivo PT [6, 14]: did not alter
- ex vivo TT [6, 14]: did not alter
- ex vivo APTT ([6]; ECAT rabbits, highest two doses, 120 min after start of infusion): elevated APTT significantly
- prolongation of ex vivo APTT needed to achieve 50% thrombus weight reduction ([6]; rabbit ECAT): 1.6 fold
- peak platelet aggregation response to ADP (10 µM) ([8]; milvexian 1 μM): 58 ± 2%
- peak platelet aggregation response to collagen (10 µg/ml) ([8]; milvexian 1 μM): 67 ± 2%
- peak platelet aggregation response to arachidonic acid (250 µM) ([8]; milvexian 1 μM): 65 ± 1%
- peak platelet aggregation response to ADP (10 µM) ([8]; milvexian 10 μM): 55 ± 2%
- peak platelet aggregation response to collagen (10 µg/ml) ([8]; milvexian 10 μM): 69 ± 1%
- peak platelet aggregation response to arachidonic acid (250 µM) ([8]; milvexian 10 μM): 66 ± 2%
- platelet aggregation to ADP, arachidonic acid, or collagen ([8]; result in words): did not alter
- PT (pooled human plasma [9]): 12.9 ± 0.4 s
- TT (pooled human plasma [11]; 20 μM total plasma concentration): 24.8 s
- TT (pooled human plasma [11]; 40 μM total plasma concentration): 28.4 s
